For series [1], the system named is breast cancer MCF-7 cell line. Nature of the series: In vitro anti-proliferative activity, MTT assay. In kind it is cell-based, human. Conditions: MCF-7, MTT. The protocol: The in vitro anti-proliferative activity of the newly prepared pyridine-ureas 8a–n was examined against breast cancer MCF-7 cell line. The assay was carried out, as triplicates, utilizing the 3-(4,5-dimethylthiazol-2-yl)-2,5-diphenyltetrazolium bromide (MTT) colorimetric assay as described by T. Mosmann. Doxorubicin and Sorafenib were included in this assay as a reference drug.
MCF-7 (human breast cancer cell line) and WI-38 (human lung fibroblast cell line), were obtained from American Type Culture Collection (Manassas, VA, USA). The cells were propagated in DMEM and supplemented with 10% heat-inactivated FBS (Hyclone), 10 μg/mL of insulin (Manufacturer, Sigma, St. Louis, MO, USA), and 1% penicillin-streptomycin. MTT assay was utilized to examine the in vitro anti-proliferative activity of the newly prepared ureas following the reported procedures. […] The data presented are the mean of at least three separate experiments.

[2] abbreviates: Homo sapiens, MCF7, 48 h, 48 h of incubation, read-out: IC50 48 h.
Setting [3] is: Homo sapiens, MCF7, 72 h, 72 h of incubation, read-out: IC50 72 h.
Where [4] appears, read: 48 h of incubation, read-out: IC50 48 h.

Where two headings read alike, the source gives them in different places. A value given as a limit tells only on which side of the number the result lay.

As to `COc1cccc2c1C(=O)c1c(O)c3c(c(O)c1C2=O)C[C@@](O)(C(=O)CO)C[C@@H]3O[C@H]1C[C@H](N)[C@H](O)[C@H](C)O1` [Dox., Doxorubicin, reference compound], the values for the IC50 in series [1] (setting [2]) and in series [1] (setting [3]) were 1.93 ± 0.15 µM and 1.07 ± 0.07 µM, respectively.
The molecule `COc1ccc(-c2ccc(NC(=O)Nc3cccc(Cl)c3)c(C)n2)cc1` [Compound 8c, 1-(3-Chlorophenyl)-3-(6-(4-methoxyphenyl)-2-methylpyridin-3-yl) Urea] gave a melting point of 212 to 214 °C. For the same molecule, the IC50 in series [1] (setting [2]) came to 6.4 ± 0.41 µM. In addition, the IC50 in series [1] (setting [3]) worked out at 3.52 ± 0.11 µM.
For `CNC(=O)c1cc(Oc2ccc(NC(=O)Nc3ccc(Cl)c(C(F)(F)F)c3)cc2)ccn1` [Sorafenib, reference compound], the IC50 stood at 4.5 ± 0.3 µM in series [1] (setting [2]) and 1.71 ± 0.15 µM in series [1] (setting [3]).
As to `COc1ccc(-c2ccc(NC(=O)Nc3ccccc3)c(C)n2)cc1OC` [Compound 8h, 1-(6-(3,4-Dimethoxyphenyl)-2-methylpyridin-3-yl)-3-phenylurea], the melting point is 238 to 239 °C. Moreover, in series [1] (setting [2]), the IC50 is more than 50 µM. Besides, the IC50 in series [1] (setting [3]) is more than 50 µM. Besides, the IC50 in series [1] (setting [4]) was more than 50 µM.
For the molecule `COc1ccc(-c2ccc(NC(=O)Nc3ccc(Cl)cc3)c(C)n2)cc1OC` [Compound 8k, 1-(4-Chlorophenyl)-3-(6-(3,4-dimethoxyphenyl)-2-methylpyridin-3-yl) Urea], the melting point fell in the range of 266 to 267 °C. The IC50 in series [1] (setting [2]) was 5.63 ± 0.36 µM. The IC50 in series [1] (setting [3]) was 3.45 ± 0.3 µM.
Consider `COc1ccc(-c2ccc(NC(=O)Nc3cccc(OC)c3)c(C)n2)cc1` [Compound 8f, 1-(3-Methoxyphenyl)-3-(6-(4-methoxyphenyl)-2-methylpyridin-3-yl) Urea], for which the melting point fell in the range of 227 to 230 °C. Further, the IC50 in series [1] (setting [2]) is more than 50 µM. Moreover, the IC50 in series [1] (setting [3]) is more than 50 µM. Moreover, the IC50 in series [1] (setting [4]) was more than 50 µM.
`COc1ccc(NC(=O)Nc2ccc(-c3ccc(OC)cc3)nc2C)cc1` [Compound 8g, 1-(4-Methoxyphenyl)-3-(6-(4-methoxyphenyl)-2-methylpyridin-3-yl) Urea] came in with a melting point of 241 to 242 °C. Further, in series [1] (setting [2]), the concentration for half-maximal inhibition (IC50) turned out to be 4.12 ± 0.27 µM. Moreover, in series [1] (setting [3]), the IC50 was determined as 27.2 ± 1.98 µM.
For `COc1ccc(-c2ccc(NC(=O)Nc3ccccc3)c(C)n2)cc1` [Compound 8a, 1-(6-(4-Methoxyphenyl)-2-methylpyridin-3-yl)-3-phenylurea], in that order: 205 to 207 °C, 3.03 ± 0.22 µM and 2.83 ± 0.25 µM.

The values are drawn from article PMC6100082, “Pyridine-Ureas as Potential Anticancer Agents: Synthesis and In Vitro Biological Evaluation” (Molecules : A Journal of Synthetic Chemistry and Natural …, 2018).
